For 13 molecules, IC50 results are on record in patent US20250215030A1, “STAT MODULATORS AND USES THEREOF” (Recludix Pharma, Inc., priority 2022, published 2025).

Structures are written as SMILES.

The target in the first experiment is T1, pSTAT3 (pY705-STAT3) (Homo sapiens, UniProt P40763).
T1 construct: host or cells: cryopreserved PBMC
T1 sequence (P40763 whole entry): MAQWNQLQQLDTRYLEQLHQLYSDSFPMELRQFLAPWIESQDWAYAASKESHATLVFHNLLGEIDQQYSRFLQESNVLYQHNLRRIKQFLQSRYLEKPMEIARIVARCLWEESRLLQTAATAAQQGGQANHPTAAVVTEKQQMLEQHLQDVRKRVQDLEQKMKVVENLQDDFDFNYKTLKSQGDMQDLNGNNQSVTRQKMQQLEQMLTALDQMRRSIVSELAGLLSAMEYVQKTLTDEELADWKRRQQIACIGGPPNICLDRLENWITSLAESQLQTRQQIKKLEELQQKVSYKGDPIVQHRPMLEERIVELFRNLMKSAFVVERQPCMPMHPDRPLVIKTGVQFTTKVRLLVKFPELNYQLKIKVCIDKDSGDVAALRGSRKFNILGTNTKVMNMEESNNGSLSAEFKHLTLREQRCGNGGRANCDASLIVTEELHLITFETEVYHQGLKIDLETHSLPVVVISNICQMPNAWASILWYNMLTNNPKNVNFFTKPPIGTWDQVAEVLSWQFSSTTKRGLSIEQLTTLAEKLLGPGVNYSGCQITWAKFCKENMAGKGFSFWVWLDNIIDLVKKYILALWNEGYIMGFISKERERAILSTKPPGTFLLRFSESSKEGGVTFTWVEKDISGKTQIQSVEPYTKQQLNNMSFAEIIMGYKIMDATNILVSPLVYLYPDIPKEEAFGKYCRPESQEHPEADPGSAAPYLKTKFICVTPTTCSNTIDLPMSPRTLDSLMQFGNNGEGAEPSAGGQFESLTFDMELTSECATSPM
In words: MSD-pSTAT-PBMC Assay (pSTAT3, IL-6 stimulated). Format: cell-based.
Details: not given
In a few lines: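 Human PBMCs (50,000 cells/well for STAT3, 25,000 for STAT6) treated with compound 3 h, then stimulated 10 min with 10 ng/mL IL-6 or 1 ng/mL IL-4. Lysate pSTAT3 (pY705) or pSTAT6 (pY641) measured by MSD sandwich electrochemiluminescence. Signal minus unstimulated, normalized to DMSO; IC50 by variable-slope nonlinear regression.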
In turn, `Cc1ccncc1C1CN(C(=O)[C@@H]2CC[C@@H]3C[C@H]4C[C@H]4C[C@H](NC(=O)c4cc5cc(C(F)P(=O)(N[C@@H](C)C(=O)OC(C)C)Oc6ccccc6)ccc5s4)C(=O)N32)C1` (stereo partly drawn) [Compound 281, isopropyl ((fluoro(2-(((3S,6S,7aS,8aR,9aR)-3-(3-(4-methylpyridin-3-yl)azetidine-1-carbonyl)-5-oxodecahydro-1H-cyclopropa[d]pyrrolo[1,2-a]azocin-6-yl)carbamoyl)benzo[b]thiophen-5-yl)methyl)(phenoxy)phosphoryl)-L-alaninate] had an IC50 of less than 100 nM.
On the same count and under the same terms, the same measure for `CCCOC(=O)[C@H](C)NP(=O)(Cc1ccc2sc(C(=O)N[C@H]3C[C@H]4C[C@H]4C[C@H]4CC[C@@H](C(=O)N5CC(c6cnccc6F)C5)N4C3=O)cc2c1)Oc1ccccc1` (stereo partly drawn) [Compound 251, propyl(((2-(((3S,6S,7aR,8aS,9aR)-3-(3-(4-fluoropyridin-3-yl)azetidine-1-carbonyl)-5-oxodecahydro-1H-cyclopropa[d]pyrrolo[1,2-a]azocin-6-yl)carbamoyl)benzo[b]thiophen-5-yl)methyl)(phenoxy)phosphoryl)-L-alaninate]: less than 100 nM.
Still for that read-out and setting: the same measure for `CCCOC(=O)[C@H](C)NP(=O)(Oc1ccccc1)[C@H](F)c1ccc2sc(C(=O)N[C@H]3C[C@@H]4C[C@@H]4C[C@H]4CC[C@@H](C(=O)N5CC(c6cnccc6N6CCOCC6)C5)N4C3=O)cc2c1` (stereo partly drawn) [Compound 413, propyl(((S)-fluoro(2-(((3S,6S,7aS,8aR,9aR)-3-(3-(4-morpholinopyridin-3-yl)azetidine-1-carbonyl)-5-oxodecahydro-1H-cyclopropa[d]pyrrolo[1,2-a]azocin-6-yl)carbamoyl)benzo[b]thiophen-5-yl)methyl)(phenoxy)phosphoryl)-L-alaninate]: less than 100 nM.

Still in this experiment, the particulars now being: PBMC, compound 3 hrs, then 10 ng/mL IL-6 for 10 min; MSD pY705-STAT3; read-out: pSTAT3.
On to `CCCOC(=O)[C@H](C)NP(=O)(Oc1ccccc1)C(F)c1ccc2sc(C(=O)N[C@H]3C[C@@H]4C[C@@H]4C[C@H]4CC[C@@H](C(=O)N5CC(c6cc(C)no6)C5)N4C3=O)cc2c1` (stereo partly drawn) [Compound 361, propyl ((fluoro(2-(((3S,6S,7aS,8aR,9aR)-3-(3-(3-methylisoxazol-5-yl)azetidine-1-carbonyl)-5-oxodecahydro-1H-cyclopropa[d]pyrrolo[1,2-a]azocin-6-yl)carbamoyl)benzo[b]thiophen-5-yl)methyl)(phenoxy)phosphoryl)-L-alaninate], for which the IC50 is less than 100 nM.
On to `CCCOC(=O)[C@H](C)NP(=O)(Oc1ccccc1)C(F)c1ccc2sc(C(=O)N[C@H]3C[C@@H]4C[C@@H]4C[C@H]4CC[C@@H](C(=O)N5CC(c6cnccc6F)C5)N4C3=O)cc2c1` (stereo partly drawn) [Compound 263, propyl ((fluoro(2-(((3S,6S,7aS,8aR,9aR)-3-(3-(4-fluoropyridin-3-yl)azetidine-1-carbonyl)-5-oxodecahydro-1H-cyclopropa[d]pyrrolo[1,2-a]azocin-6-yl)carbamoyl)benzo[b]thiophen-5-yl)methyl)(phenoxy)phosphoryl)-L-alaniante], for which the IC50 is less than 100 nM.
On the same count and under the same terms, the same measure for `CCCOC(=O)[C@H](C)NP(=O)(Oc1ccccc1)C(F)c1ccc2sc(C(=O)N[C@H]3C[C@@H]4C[C@@H]4C[C@H]4CC[C@@H](C(=O)N5CC(c6ccon6)C5)N4C3=O)cc2c1` (stereo partly drawn) [Compound 316, propyl ((fluoro(2-(((3S,6S,7aS,8aR,9aR)-3-(3-(isoxazol-3-yl)azetidine-1-carbonyl)-5-oxodecahydro-1H-cyclopropa[d]pyrrolo[1,2-a]azocin-6-yl)carbamoyl)benzo[b]thiophen-5-yl)methyl)(phenoxy)phosphoryl)-L-alaninate]: less than 100 nM.
Still for that read-out and setting: the same measure for `CC(C)(C)C(=O)SCCOP(=O)(OCCSC(=O)C(C)(C)C)C(F)c1ccc2sc(C(=O)N[C@H]3C[C@@H]4C[C@@H]4C[C@H]4CC[C@@H](C(=O)N5CC(c6cnccc6F)C5)N4C3=O)cc2c1` (stereo partly drawn) [Compound 306, S,S′-((((fluoro(2-(((3S,6S,7aS,8aR,9aR)-3-(3-(4-fluoropyridin-3-yl)azetidine-1-carbonyl)-5-oxodecahydro-1H-cyclopropa[d]pyrrolo[1,2-a]azocin-6-yl)carbamoyl)benzo[b]thiophen-5-yl)methyl)phosphoryl)bis(oxy))bis(ethane-2,1-diyl))bis(2,2-dimethylpropanethioate)]: less than 100 nM; for `CC(C)(C)C(=O)SCCOP(=O)(OCCSC(=O)C(C)(C)C)C(F)(F)c1ccc2sc(C(=O)N[C@H]3C[C@@H]4C[C@@H]4C[C@H]4CC[C@@H](C(=O)N5CC(c6ccccn6)C5)N4C3=O)cc2c1` [Compound 314]: less than 100 nM; for `CCCOC(=O)[C@H](C)N[P@@](=O)(Oc1ccccc1)[C@@H](F)c1ccc2sc(C(=O)N[C@H]3C[C@@H]4C[C@@H]4C[C@H]4CC[C@@H](C(=O)N5C[C@@H](c6cnccc6N(C)C)CC56CC6)N4C3=O)cc2c1` (single isomer, unassigned) [Compound 432]: less than 100 nM.
Still for that read-out and setting: the same measure for `COC(=O)[C@H](C)NP(=O)(Cc1ccc2sc(C(=O)N[C@H]3C[C@@H]4C[C@@H]4C[C@H]4CC[C@@H](C(=O)N5CC(C(=O)N6CCOCC6)C5)N4C3=O)cc2c1)Oc1ccccc1` (stereo partly drawn) [Compound 216, methyl (((2-(((3S,6S,7aS, 8aR,9aR)-3-(3-(morpholine-4-carbonyl)azetidine-1-carbonyl)-5-oxodecahydro-1H-cyclopropa [d]pyrrolo[1,2-a]azocin-6-yl)carbamoyl)benzo[b]thiophen-5-yl)methyl) (phenoxy)phosphoryl)-L-alaninate]: 100 to 1000 nM.
As for `CCCOC(=O)[C@H](C)NP(=O)(Oc1ccccc1)C(F)c1ccc2sc(C(=O)N[C@H]3C[C@H]4C[C@H]4C[C@H]4CC[C@@H](C(=O)N5CC(c6cnccc6C)C5)N4C3=O)cc2c1` (stereo partly drawn) [Compound 321, propyl ((fluoro(2-(((3S,6S,7aR,8aS,9aR)-3-(3-(4-methylpyridin-3-yl)azetidine-1-carbonyl)-5-oxodecahydro-1H-cyclopropa[d]pyrrolo[1,2-a]azocin-6-yl)carbamoyl)benzo[b]thiophen-5-yl)methyl)(phenoxy)phosphoryl)-L-alaninate], the IC50 is less than 100 nM.
Consider `CC(C)OC(=O)[C@H](Cc1ccccc1)NP(=O)(Cc1ccc2sc(C(=O)N[C@H]3C[C@@H]4C[C@@H]4C[C@H]4CC[C@@H](C(=O)N5CC(C(=O)N6CCOCC6)C5)N4C3=O)cc2c1)Oc1ccccc1` (stereo partly drawn) [Compound 134, isopropyl (((2-(((3S,6S,7aS, 8aR,9aR)-3-(3-(morpholine-4-carbonyl)azetidine-1-carbonyl)-5-oxodecahydro-1H-cyclopropa[d]pyrrolo[1,2-a]azocin-6-yl)carbamoyl)benzo[b]thiophen-5-yl)methyl) (phenoxy)phosphoryl)-L-phenyl-alaninate], for which the IC50 lay in the range of 100 to 1000 nM.
Same read-out and setting: the same measure for `CC(C)OC(=O)[C@H](Cc1ccccc1)OP(=O)(Oc1ccccc1)C(F)(F)c1ccc2sc(C(=O)N[C@H]3C[C@@H]4C[C@@H]4C[C@H]4CC[C@@H](C(=O)N5CC(C(=O)N6CCOCC6)C5)N4C3=O)cc2c1` (stereo partly drawn) [Compound 167, isopropyl (2S)-2-(((difluoro(2-(((3S,6S,7aS, 8aR,9aR)-3-(3-(morpholine-4-carbonyl)azetidine-1-carbonyl)-5-oxodecahydro-1H-cyclopropa[d]pyrrolo[1,2-a]azocin-6-yl)carbamoyl)benzo[b]thiophen-5-yl)methyl) (phenoxy)phosphoryl)oxy)-3-phenyl-propanoate]: greater than 3000 nM.
